Laboratory results published in PubChem BioAssay (NCI).
“And” between values parts separate entries of the source, which are not always exact repeats. Equal values may be shown once.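 Protocol summary: plate cells (96-well), add compound at 5 concentrations, incubate 48 h, interpolate endpoints linearly. At the GI50, growth is halved. TGI denotes the concentration required for complete inhibition of growth.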

Columns and labels:
Experiment in all cases: NCI tumour cell line growth inhibition, 48 h
M14 melanoma = test system: M14 melanoma
SK-MEL-2 melanoma = test system: SK-MEL-2 melanoma
HCT-116 colon = test system: HCT-116 colon
HOP-92 NSCLC = test system: HOP-92 NSCLC
OVCAR-5 ovarian = test system: OVCAR-5 ovarian
OVCAR-3 ovarian = test system: OVCAR-3 ovarian
SK-MEL-28 melanoma = test system: SK-MEL-28 melanoma
UO-31 renal = test system: UO-31 renal
MCF7 breast = test system: MCF7 breast
MDA-MB-435 = test system: MDA-MB-435

SMILES	TGI (M14 melanoma) [µM]	TGI (SK-MEL-2 melanoma) [µM]	TGI (HCT-116 colon) [µM]	TGI (HOP-92 NSCLC) [µM]	TGI (OVCAR-5 ovarian) [µM]	TGI (OVCAR-3 ovarian) [µM]	TGI (SK-MEL-28 melanoma) [µM]	TGI (UO-31 renal)	TGI (MCF7 breast) [µM]	GI50 (M14 melanoma) [µM]	GI50 (SK-MEL-2 melanoma) [µM]	GI50 (HCT-116 colon) [µM]	GI50 (HOP-92 NSCLC) [µM]	GI50 (OVCAR-5 ovarian) [µM]	GI50 (OVCAR-3 ovarian) [µM]	GI50 (SK-MEL-28 melanoma) [µM]	GI50 (UO-31 renal)	GI50 (MCF7 breast) [µM]	TGI (MDA-MB-435) [µM]	GI50 (MDA-MB-435) [µM]
Cn1c2ccc3cc2c(=S)c2cc(ccc21)OCCOCCOCCOCCOCCOCCO3	> 10	> 10	> 10	> 10	> 10	> 10	> 10	> 10 µM	> 10	–	–	–	–	–	–	–	–	–	–	–
O=c1c(-c2ccccc2)c2oc(c1-c1ccccc1)CSCc1cccc(c1)CSC2	> 100	> 100	> 100	> 100	> 100	77	87.4	> 100 µM	–	–	–	–	–	–	–	–	–	–	–	–
COC(=O)C(CCCN1C(=O)c2ccccc2C1=O)C(=O)OC	> 100	> 100	> 100	> 100	> 100	> 100	> 100	> 100 µM	–	–	–	–	–	–	–	–	–	–	–	–
CCCCCC[C@@H]1CCC2C(CO)[C@@H](O)CC[C@@H]2C1 (some centres undefined)	31.3	43.3	32.1	–	33.9	29.3	34.3	38.7 µM	–	–	–	–	–	–	–	–	–	–	–	–
COc1ccc(/C=N/NC(=O)c2cccc3cc[nH]c23)cc1O	> 100	> 100	> 100	> 74.6	> 100	1.89	> 100	> 100 µM	> 100	1.13	18.9	1.72	18.5	> 54.6	0.307	6.46	6.51 µM	0.63	–	–
COc1ccc(C2[C@@H](c3ccccc3)C(=O)N2c2cc(OC)c(OC)c(OC)c2)cc1F (some centres undefined)	0.0672	> 100	10.4	> 100	> 100	0.077	> 100	> 100 µM	> 100	0.0226	0.0354	0.0324	2.84	0.0517	0.028	1.37	0.0771 µM	0.0296	–	–
O=C(/C=C/c1ccc([N+](=O)[O-])cc1)c1ccc(NCc2nc3ccccc3[nH]2)cc1	24	29.7	–	21.8	26.3	11.8	28	16.3 µM	–	–	–	–	–	–	–	–	–	–	–	–
C=CC[C@H](C[C@H](C[C@H](C[C@H](C[C@H](C[C@H](C[C@H](C[C@H](C[C@H](C[C@H](CCCCC)OC)OC)OC)OC)OC)OC)OC)OC)OC)OC	> 100	> 100	> 100	> 100	> 100	> 100	> 100	> 100 µM	–	–	–	–	–	–	–	–	–	–	–	–
O=C(O)c1nc2nc(Cl)c(Cl)nc2[nH]1	> 100	> 100	> 100	> 100	> 100	> 100	> 100	–	> 100	–	–	–	–	–	–	–	–	–	> 100	–
CC(=O)O/N=C(/C)c1ccccc1O	> 100	> 100	> 100	–	> 100	> 100	> 100	> 100 µM	–	–	–	–	–	–	–	–	–	–	–	–
CCCCN(CCCC)C(=O)C(=O)C(C(=O)c1ccc(OC)cc1)c1ccc(OC)cc1 (centres undefined)	> 100	> 100	> 100	> 100	> 100	> 100	> 100	> 100 µM	–	–	–	–	–	–	–	–	–	–	–	–
CCc1c(OC(C)=O)c2c(NC3OCC(OC(C)=O)C(OC(C)=O)C3OC(C)=O)nc(SC)nc2oc1=O (centres undefined)	> 100	> 100	> 100	> 100	> 100	> 100	–	> 100 µM	–	–	–	–	–	–	–	–	–	–	–	–
O=[N+]([O-])c1ccc(Cl)cc1N/N=C/c1ccnc2ccccc12	> 100	–	> 100	–	–	> 100	> 100	> 100 µM	> 100	–	–	–	–	–	–	–	–	–	> 100	–
COc1ccc(OC)c(N2CC(N)C2=O)c1 (centres undefined)	> 100	> 100	> 100	> 100	–	> 100	> 100	> 100 µM	–	–	–	–	–	–	–	–	–	–	–	–
COc1ccc(-c2cn[nH]c2-c2cc(OC)c(OC)c(OC)c2)cc1	–	21.5	11.4	9.79	36.9	0.0694	32	15.2 µM	16.8	–	0.0317	0.0342	0.0407	0.0375	0.0228	0.0376	0.0572 µM	0.0284	–	–
Nc1ccccc1SC(CC(=O)c1ccccc1)c1cccc([N+](=O)[O-])c1 (centres undefined)	32.5	35.8	3.97	–	32.2	25.8	30.3	20.5 µM	18	17.3	20.6	1.96	–	17.4	12.8	16.6	3.11 µM	2.6	30.4	16.3
COc1cc(C2CC(C)(O)Oc3cc4c(cc32)OCO4)cc(OC)c1OC (centres undefined)	> 100	–	> 100	> 100	> 100	0.679	> 100	–	23.6	–	–	–	–	–	–	–	–	–	–	–
Cc1ccc(/C=C/C(=O)c2cccc3ccccc23)cc1	39.5	32.6	24.6	–	27.5	31.7	35.4	39.7 µM	–	–	–	–	–	–	–	–	–	–	–	–
Cc1cccc(C)c1NC(=O)CCCC(=O)C1/C(=N/NC(=O)CC#N)CCC/C1=N\NC(=O)CC#N (centres undefined)	> 100	> 100	> 100	> 100	> 100	> 100	> 100	> 100 µM	–	–	–	–	–	–	–	–	–	–	–	–
O=C1C=CC(=O)c2nc3c(cc21)CCC3	31	–	28.8	34.1	> 100	32	40.4	> 100 µM	–	–	–	–	–	–	–	–	–	–	–	–
COC(=O)CC(c1ccccc1)C1(c2ccccc2)SCCS1 (centres undefined)	–	> 290	> 290	187	> 290	> 290	> 290	–	–	–	–	–	–	–	–	–	–	–	–	–

SMILES	TGI (M14 melanoma) [µM]	TGI (SK-MEL-2 melanoma) [µM]	TGI (HCT-116 colon) [µM]	TGI (HOP-92 NSCLC) [µM]	TGI (OVCAR-5 ovarian) [µM]	TGI (OVCAR-3 ovarian) [µM]	TGI (SK-MEL-28 melanoma) [µM]	TGI (UO-31 renal)	TGI (MCF7 breast) [µM]	GI50 (M14 melanoma) [µM]	GI50 (SK-MEL-2 melanoma) [µM]	GI50 (HCT-116 colon) [µM]	GI50 (HOP-92 NSCLC) [µM]	GI50 (OVCAR-5 ovarian) [µM]	GI50 (OVCAR-3 ovarian) [µM]	GI50 (SK-MEL-28 melanoma) [µM]	GI50 (UO-31 renal)	GI50 (MCF7 breast) [µM]	TGI (MDA-MB-435) [µM]	GI50 (MDA-MB-435) [µM]
O=S(=O)(N/N=C/c1cccc(/C=N/NS(=O)(=O)c2ccccc2)c1)c1ccccc1	> 100	> 100	> 100	97.2	> 100	> 100	> 100	> 100 µM	–	–	–	–	–	–	–	–	–	–	–	–
C=C(C)CCOC(c1ccccc1)(c1ccccc1)c1ccccc1	> 100	–	76.6	> 100	> 100	> 100	> 100	> 100 µM	–	–	–	–	–	–	–	–	–	–	–	–
S=c1sc2c(n1-c1ccccc1)NC=NC2S (centres undefined)	> 100	> 100	> 100	71.1	> 100	> 100	> 100	> 100 µM	–	–	–	–	–	–	–	–	–	–	–	–
CC(=O)CC(OC(C)=O)C1=CCC2C(CC1C)OC(=O)C2C (centres undefined)	> 100	> 100	> 100	> 100	> 100	> 100	> 100	–	> 100	–	–	–	–	–	–	–	–	–	> 100	–
O=c1ccc2ccccc2cc1[O-].O=c1ccc2ccccc2cc1[O-].[O]=[U+2]=[O]	54.5	38.1	–	72.1	> 100	50.1	47.5	–	–	16.9	11.7	–	28.1	30.1	8.28	15.3	–	–	–	–
Nc1cc(NN=C(c2ccc(O)cc2)c2ccc(O)cc2)c([N+](=O)[O-])cc1[N+](=O)[O-]	3.49	–	4.23	8.2	8.44	4.14	3.56	4.87 µM	3.28	1.71	–	2	2.18	2.85	1.81	1.6	1.81 µM	1.56	3.44	1.7
C/C(=N/Nc1ccc([N+](=O)[O-])cc1[N+](=O)[O-])C(CC(C(=O)NCc1ccccc1)/C(C)=N\Nc1ccc([N+](=O)[O-])cc1[N+](=O)[O-])C(=O)NCc1ccccc1 (centres undefined)	21.9	23.9	16.4	7.98	56.6	24.5	22.4	14.2 µM	–	–	–	–	–	–	–	–	–	–	–	–
Cc1ccc(-n2c3nc(=O)[nH]c(=O)c-3cc3cc([N+](=O)[O-])ccc32)cc1	36.6	> 100	21	–	50.2	4.79	42.2	68.2 µM	–	17.3	44.2	5.26	–	21.1	2.18	15.7	23 µM	–	17.7	4.01
CC(=O)NNc1nc(C)c(C(=O)/C=C/c2ccc(NC(C)=O)cc2)s1	–	> 100	–	> 100	> 100	> 100	> 100	> 100 µM	–	–	–	–	–	–	–	–	–	–	–	–
O=C(Nc1ccccc1-c1nn(C(=S)Nc2ccccc2)c(=S)n(C(=S)Nc2ccccc2)c1=O)C(F)(F)F	53.3	> 66.7	> 51.4	57.9	> 100	> 72.5	> 100	50.3 µM	–	–	–	–	–	–	–	–	–	–	–	–
COc1cc(/C(C#N)=C/c2nc3c(N4CCOCC4)nc(Cl)nc3n2C)cc(OC)c1OC	–	62.7	0.464	4.38	> 100	< 0.01	> 64.8	5.17 µM	> 32.5	–	< 0.0144	< 0.01	0.158	< 0.01	< 0.01	1.03	< 0.01 µM	< 0.0115	–	–
CC(C)(C)c1cc2ccc(C(N)=O)cc2c(=O)[nH]1	> 100	> 100	> 100	> 100	> 100	> 100	> 100	> 100 µM	–	–	–	–	–	–	–	–	–	–	–	–
CC(=O)OCCOCNC(=S)N/N=C(\C)c1cnccn1	54.7	> 100	> 100	–	40.5	> 100	> 100	> 100 µM	–	–	–	–	–	–	–	–	–	–	–	–
CCn1c(-c2nonc2N)nc2c(C#CC(C)(C)O)nc(OC[C@@H](N)c3ccccc3)cc21	8.11	10.2	7.63	–	15.1	8.23	8.47	9.4 µM	6.12	4.52	5.83	4.13	–	7.92	4.24	4.85	5.08 µM	2.94	9.81	5.22
Cc1ccc(Oc2ccc(C)cc2N)cc1	> 100	> 100	> 100	95.3	> 100	> 100	> 100	> 100 µM	–	–	–	–	–	–	–	–	–	–	–	–
CC(C)(C)c1cc2c(O)c3cccc4c(=O)c5cccc6c5-c(c34)c2c(c1)c6=O	> 100	> 100	> 100	96.5	> 100	> 100	–	> 100 µM	–	–	–	–	–	–	–	–	–	–	–	–
Cc1ccc(/C=C/C(=O)CCN(C)C)cc1	38.7	–	33.1	38.1	> 100	39.4	33.8	33.8 µM	–	–	–	–	–	–	–	–	–	–	–	–
COc1nc(NC2OC(COC(C)=O)C(OC(C)=O)C(OC(C)=O)C2OC(C)=O)c2c(OC(C)=O)cc(=O)oc2n1 (centres undefined)	> 100	> 100	> 100	> 100	> 100	> 100	–	> 100 µM	–	–	–	–	–	–	–	–	–	–	–	–
CCCCCCCCCCCCCCCC[N+](C)(C)Cc1ccccc1	2.49	–	–	–	–	2.53	3.19	22.8 µM and 8.18 µM	–	1.2	–	–	–	–	1.21	1.68	2.98 µM and 2.01 µM	–	2.91	1.54
N[C@@H]1CCCC[C@@H]1N.O=P([O-])([O-])CN(CCN(CP(=O)([O-])[O-])CP(=O)([O-])[O-])CP(=O)([O-])[O-].[Pt+2]	> 25	> 25	> 25	–	> 25	> 25	> 25	> 25 µM	–	> 25	> 25	> 25	–	> 25	> 25	> 25	> 25 µM	–	–	–
